# Data published in patent publication US6933298B2, “Pyridine-2,4-dicarboxylic acid diamides and pyrimidine-4,6-dicarboxylic acid diamides and the use thereof for selectively inhibiting collagenases” (Aventis Pharma Deutschland GmbH, priority 2001, dated 2005).
# Molecular target: T1, catalytic domain of human collagenase-3 (MMP-13) (Homo sapiens, UniProt P45452)
# T1 construct: Determining the enzymic activity of the catalytic domain of human collagenase-3 (MMP-13); purchased INVITEK, Berlin 30 100 803
# Assay: Enzymic activity of the catalytic domain of human collagenase-3 (MMP-13), fluorogenic substrate
# Type: biochemical
# Details: activated with APMA, pH 7.5, read-out: IC50 MMP13
# Description: Determining the enzymic activity of the catalytic domain of human collagenase-3 (MMP-13).
# Activation of the proenzyme:
# 2 parts by volume of proenzyme are incubated with 1 part by volume of APMA solution at 37° C. for 1.5 hours. The APMA solution is prepared from a 10 mmol/l solution of p-aminophenylmercuric acetate in 0.1 mmol/l NaOH by diluting it with 3 parts by volume of Tris/HCl buffer, pH 7.5 (see below). The pH is adjusted to between 7.0 and 7.5 by adding 1 mmol/l HCl.
# In order to measure the enzyme activity, 10 μl of enzyme solution are incubated for 15 minutes with 10 μl of a buffered 3% (v/v) solution of dimethyl sulfoxide (reaction 1). In order to measure the enzyme inhibitor activity, 10 μl of enzyme solution are incubated with 10 μl of a buffered 3% (v/v) solution of dimethyl sulfoxide which contains the enzyme inhibitor (reaction 2).
# The enzyme activity is presented as increase in extinction/minute.
# The buffer solution contains 0.05% Brij (Sigma, Deisenhofen, Germany) and also 0.1 mol of Tris/HCl/l, 0.1 mol of NaCl/1 and 0.01 mol of CaCl2/l (pH=7.5).
# The substrate solution contains 0.75 mmol of the fluorogenic substrate (7-methoxycoumarin-4-yl)acetyl-Pro-Leu-Gly-Leu-3-(2′,4′-dinitrophenyl)-L-2,3-diaminopropionyl-Ala-Arg-NH2/I(Bachem, Heidelberg, Germany).
row,SMILES,IC50
1,O=C(NCc1ccccc1)c1ccnc(C(=O)NCc2ccccc2)c1 [Example 4],3400 nM
2,O=C(NCc1cccc(Cl)c1)c1cc(C(=O)NCc2cccc(Cl)c2)ncn1 [Example 19],57 nM
3,O=C(NCc1ccc(F)c(F)c1)c1cc(C(=O)NCc2ccc(F)c(F)c2)ncn1 [Example 16],105 nM
4,O=C(NCc1ccc(F)cc1)c1cc(C(=O)NCc2ccc(F)cc2)ncn1 [Example 15],190 nM
5,O=C(NCc1ccc2c(c1)OCO2)c1cc(C(=O)NCc2ccc3c(c2)OCO3)ncn1 [Example 20],14 nM
6,O=C(NCc1ccc(F)cc1)c1ccnc(C(=O)NCc2ccc(F)cc2)c1 [Example 7],620 nM
7,Cc1ccc(CNC(=O)c2cc(C(=O)NCc3ccc(C)cc3)ncn2)cc1 [Example 5],2000 nM
8,O=C(NCc1ccc(F)c(C(F)(F)F)c1)c1cc(C(=O)NCc2ccc(F)c(C(F)(F)F)c2)ncn1 [Example 13],210 nM
9,"O=C(NCc1ccc(F)c(Cl)c1)c1cc(C(=O)NCc2ccc(F)c(Cl)c2)ncn1 [Example 2, Pyrimidine-4,6-dicarboxylic acid bis(3-chloro-4-fluorobenzylamide)]",23 nM
10,COc1cccc(CNC(=O)c2cc(C(=O)NCc3cccc(OC)c3)ncn2)c1 [Example 21],10 nM
11,O=C(NCc1ccc2c(c1)CCO2)c1cc(C(=O)NCc2ccc3c(c2)CCO3)ncn1 [Example 22],9 nM
12,O=C(NCc1cccc(OC(F)(F)F)c1)c1cc(C(=O)NCc2cccc(OC(F)(F)F)c2)ncn1 [Example 6],700 nM
13,O=C(NCc1ccc(Cl)cc1)c1cc(C(=O)NCc2ccc(Cl)cc2)ncn1 [Example 3],5600 nM

# More lines, in order of falling IC50, values ahead:
row,IC50,SMILES
1,400 nM,Cc1cccc(CNC(=O)c2ccnc(C(=O)NCc3cccc(C)c3)c2)c1 [Example 8]
2,320 nM,COc1ccc(CNC(=O)c2ccnc(C(=O)NCc3ccc(OC)cc3)c2)cc1 [Example 9]
3,300 nM,O=C(NCc1cccc(C(F)(F)F)c1)c1cc(C(=O)NCc2cccc(C(F)(F)F)c2)ncn1 [Example 11]
4,300 nM,O=C(NCc1cc(F)cc(F)c1)c1cc(C(=O)NCc2cc(F)cc(F)c2)ncn1 [Example 10]
5,260 nM,O=C(NCc1cccc(Cl)c1)c1ccnc(C(=O)NCc2cccc(Cl)c2)c1 [Example 12]
6,200 nM,O=C(NCc1cccc(F)c1)c1cc(C(=O)NCc2cccc(F)c2)ncn1 [Example 14]
7,80 nM,COc1ccc(CNC(=O)c2cc(C(=O)NCc3ccc(OC)cc3)ncn2)cc1 [Example 17]
